This test concerns the target biotinylated Bcl-xL immobilized on streptavidin magnetic beads (Homo sapiens, UniProt Q07817). The experiment in a line: AMMP target-binding assay with in vitro translated peptides. The conditions noted are these: concentration taken from the HA tag competition assay (Figure 3c).

Results on 1 substance are retold here after publication PMC4030805 (Analytical Chemistry, 2014).

Chain of biotinylated Bcl-xL immobilized on streptavidin magnetic beads (Q07817 1-209 limits assumed): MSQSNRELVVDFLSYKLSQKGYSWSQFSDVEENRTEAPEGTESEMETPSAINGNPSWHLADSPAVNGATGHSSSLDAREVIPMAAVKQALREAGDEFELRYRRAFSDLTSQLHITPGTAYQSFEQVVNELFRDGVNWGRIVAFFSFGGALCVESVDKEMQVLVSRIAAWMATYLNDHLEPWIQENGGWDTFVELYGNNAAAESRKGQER

For “H-MIETITIYKYKKAADHFSMSMGSGSGSYPYDVPDYA-NH2 [Pep1]”, the “peptide concentration giving robust signal over background” value is listed as 100 pM.
